Source: the NIST ThermoML archive (doi:10.1021/je200350a)
Numbers after ± are expanded uncertainties.

Experiment: xn = mol fraction of the nth substance listed
Conditions: 101 kPa, Liquid; for viscosity: Capillary tube (Ostwald / Ubbelohde) method

CCCCBr [1-bromobutane] + O=[N+]([O-])c1ccccc1
Conditions | mass density, 293.15 K [kg/m3] | mass density, 298.15 K [kg/m3] | mass density, 303.15 K [kg/m3] | mass density, 308.15 K [kg/m3] | viscosity, 293.15 K [mPa·s] | viscosity, 298.15 K [mPa·s] | viscosity, 303.15 K [mPa·s] | viscosity, 308.15 K [mPa·s]
x2 = 0.123 | 1270.9 ± 1.4 | 1263.5 ± 1.4 | 1256.5 ± 1.4 | 1249 ± 1.4 | 0.7256 ± 0.0071 | 0.6851 ± 0.0067 | 0.6486 ± 0.0064 | 0.615 ± 0.0061
x2 = 0.2445 | 1262.8 ± 1.4 | 1256.6 ± 1.4 | 1249.8 ± 1.4 | 1242.4 ± 1.3 | 0.8243 ± 0.0079 | 0.7761 ± 0.0075 | 0.7321 ± 0.0071 | 0.692 ± 0.0068
x2 = 0.3645 | 1253.7 ± 1.4 | 1247.1 ± 1.4 | 1240.8 ± 1.3 | 1234.3 ± 1.3 | 0.9397 ± 0.0089 | 0.8811 ± 0.0084 | 0.828 ± 0.0079 | 0.7802 ± 0.0075
x2 = 0.424 | 1249.7 ± 1.4 | 1244 ± 1.3 | 1238 ± 1.3 | 1230.7 ± 1.3 | 0.9936 ± 0.0094 | 0.9308 ± 0.0088 | 0.8743 ± 0.0083 | 0.8225 ± 0.0079
x2 = 0.542 | 1240.8 ± 1.3 | 1234.4 ± 1.3 | 1228.2 ± 1.3 | 1222.2 ± 1.3 | 1.131 ± 0.01 | 1.055 ± 0.0099 | 0.986 ± 0.0093 | 0.925 ± 0.0088
x2 = 0.6585 | 1229.4 ± 1.3 | 1223.8 ± 1.3 | 1218.5 ± 1.3 | 1212.4 ± 1.3 | 1.281 ± 0.012 | 1.19 ± 0.011 | 1.109 ± 0.01 | 1.037 ± 0.0097
x2 = 0.7737 | 1220.6 ± 1.3 | 1214.7 ± 1.3 | 1209.9 ± 1.2 | 1205.1 ± 1.2 | 1.477 ± 0.013 | 1.364 ± 0.013 | 1.266 ± 0.012 | 1.18 ± 0.011
x2 = 0.8875 | 1211.5 ± 1.3 | 1206.6 ± 1.2 | 1201.6 ± 1.2 | 1196 ± 1.2 | 1.703 ± 0.015 | 1.566 ± 0.014 | 1.447 ± 0.013 | 1.34 ± 0.012
x2 = 0.9439 | 1206.7 ± 1.2 | 1201.6 ± 1.2 | 1196.5 ± 1.2 | 1191.2 ± 1.2 | 1.835 ± 0.017 | 1.682 ± 0.015 | 1.548 ± 0.014 | 1.43 ± 0.013

CCCCBr [1-bromobutane] + CC1CCCCC1
Conditions | mass density, 293.15 K [kg/m3] | mass density, 298.15 K [kg/m3] | mass density, 303.15 K [kg/m3] | mass density, 308.15 K [kg/m3] | viscosity, 293.15 K [mPa·s] | viscosity, 298.15 K [mPa·s] | viscosity, 303.15 K [mPa·s] | viscosity, 308.15 K [mPa·s]
x2 = 0.1014 | 1218.7 ± 1.3 | 1212.2 ± 1.3 | 1206.3 ± 1.3 | 1198.2 ± 1.2 | 0.6398 ± 0.0063 | 0.6033 ± 0.006 | 0.5754 ± 0.0058 | 0.5463 ± 0.0055
x2 = 0.1535 | 1187.3 ± 1.2 | 1180.4 ± 1.2 | 1174.2 ± 1.2 | 1167.5 ± 1.2 | 0.6402 ± 0.0063 | 0.6034 ± 0.006 | 0.5745 ± 0.0058 | 0.5458 ± 0.0055
x2 = 0.2607 | 1129.8 ± 1 | 1123 ± 1 | 1118.5 ± 1 | 1111 ± 1 | 0.6441 ± 0.0064 | 0.6066 ± 0.006 | 0.5762 ± 0.0058 | 0.5462 ± 0.0055
x2 = 0.372 | 1071 ± 0.9 | 1064.8 ± 0.9 | 1059.4 ± 0.9 | 1053.2 ± 0.9 | 0.6465 ± 0.0064 | 0.6104 ± 0.0061 | 0.578 ± 0.0058 | 0.5479 ± 0.0055
x2 = 0.4293 | 1041 ± 0.8 | 1035.5 ± 0.8 | 1029.9 ± 0.8 | 1024.4 ± 0.8 | 0.6517 ± 0.0064 | 0.6152 ± 0.0061 | 0.5826 ± 0.0058 | 0.5516 ± 0.0056
x2 = 0.5473 | 978.8 ± 0.8 | 973.2 ± 0.8 | 967.8 ± 0.8 | 962.5 ± 0.8 | 0.6581 ± 0.0065 | 0.62 ± 0.0062 | 0.5854 ± 0.0059 | 0.554 ± 0.0056
x2 = 0.608 | 946.5 ± 0.8 | 941.2 ± 0.8 | 935.8 ± 0.8 | 930.7 ± 0.9 | 0.6622 ± 0.0065 | 0.6235 ± 0.0062 | 0.5882 ± 0.0059 | 0.5561 ± 0.0056
x2 = 0.7979 | 858.3 ± 1 | 853.5 ± 1 | 849 ± 1 | 843.8 ± 1 | 0.6877 ± 0.0067 | 0.6457 ± 0.0064 | 0.6074 ± 0.0061 | 0.5721 ± 0.0058
x2 = 0.8639 | 830 ± 1 | 825.8 ± 1.1 | 821.8 ± 1.1 | 816.5 ± 1.1 | 0.6993 ± 0.0068 | 0.6558 ± 0.0065 | 0.6166 ± 0.0061 | 0.5806 ± 0.0058
